“And” between values parts separate entries of the source, which are not always exact repeats. Identical values can stand only once.
Columns and labels:
[1] = tested on: Canis familiaris; test: Spermidine Distribution in kidney was determined after DEHSPM dosing of 2.0 mg/kg/day […] in dog(cu dose-52.4) and sacrificed at 10 days PLD(cu dose-22 mg/kg); type: ADME, organism-based, Canis lupus familiaris; details: in vivo, 240 h
[2] = tested on: Canis familiaris; test: Distribution in kidney was determined after DESPM dosing of 1.87 mg/kg/day for 28 days in dog(cu dose-52.4) and sacrificed at 75 days PLD(cu dose-52.4 mg/kg); type: ADME, organism-based, Canis lupus familiaris; details: in vivo, 1800 h
[3] = tested on: Canis familiaris; test: HSPM Distribution in liver was determined after DEHSPM dosing of 2.0 mg/kg/day for 29 days in dog(cu dose-52.4) and sacrificed at 10 days PLD(cu dose-22 mg/kg); type: ADME, organism-based, Canis lupus familiaris; details: in vivo, 240 h
[4] = tested on: Canis familiaris; test: Spermine Distribution in kidney was determined after DEHSPM dosing of 2.0 mg/kg/day for 29 days in dog(cu dose-52.4) and sacrificed at 10 days PLD(cu dose-58 mg/kg); type: ADME, organism-based, Canis lupus familiaris; details: in vivo, 240 h
[5] = tested on: Canis familiaris; test: Distribution in liver was determined after DESPM dosing of 6.0 mg/kg/day for 4.5 days in dog(cu dose-52.4) and sacrificed at 10 days PLD(cu dose-27 mg/kg); type: ADME, organism-based, Canis lupus familiaris; details: in vivo, 240 h
[6] = tested on: Canis familiaris; test: Distribution in liver was determined after DEHSPM dosing of 2.0 mg/kg/day for 29 days in dog(cu dose-52.4) and sacrificed at 10 days PLD(cu dose-22 mg/kg); type: ADME, organism-based, Canis lupus familiaris; details: in vivo, 240 h
[7] = tested on: Canis familiaris; test: HSPM Distribution in liver was determined after DEHSPM dosing of 2.0 mg/kg/day for 29 days in dog(cu dose-52.4) and sacrificed at 10 days PLD(cu dose-58 mg/kg); type: ADME, organism-based, Canis lupus familiaris; details: in vivo, 240 h
[8] = tested on: Canis familiaris; test: Distribution in liver was determined after DESPM dosing of 4 mg/kg/day for 13 days in dog(cu dose-52.4) and sacrificed at 10 days PLD(cu dose-52 mg/kg); type: ADME, organism-based, Canis lupus familiaris; details: in vivo, 240 h
[9] = tested on: Canis familiaris; test: Spermidine Distribution in liver was determined after DEHSPM dosing of 2.0 mg/kg/day […] in dog(cu dose-52.4) and sacrificed at 10 days PLD(cu dose-22 mg/kg); type: ADME, organism-based, Canis lupus familiaris; details: in vivo, 240 h
[10] = tested on: Canis familiaris; test: Spermine Distribution in kidney was determined after DEHSPM dosing of 2.0 mg/kg/day for 29 days in dog(cu dose-52.4) and sacrificed at 10 days PLD(cu dose-22 mg/kg); type: ADME, organism-based, Canis lupus familiaris; details: in vivo, 240 h
[11] = tested on: Canis familiaris; test: Spermidine Distribution in kidney was determined after DESPM dosing of 8.0 mg/kg/day for 4.5 days in dog(cu dose-52.4) and sacrificed at 75 days PLD(cu dose-36 mg/kg); type: ADME, organism-based, Canis lupus familiaris; details: in vivo, 1800 h
[12] = tested on: Canis familiaris; test: Spermidine Distribution in kidney was determined after DESPM dosing of 4 mg/kg/day for 13 days in dog(cu dose-52.4) and sacrificed at 75 days PLD(cu dose-52 mg/kg); type: ADME, organism-based, Canis lupus familiaris; details: in vivo, 1800 h
[13] = tested on: Canis familiaris; test: Spermine Distribution in liver was determined after DESPM dosing of 1.87 mg/kg/day for 28 days in dog(cu dose-52.4) and sacrificed at 10 days PLD(cu dose-52.4 mg/kg); type: ADME, organism-based, Canis lupus familiaris; details: in vivo, 240 h
[14] = tested on: Canis familiaris; test: Spermine Distribution in liver was determined after DESPM dosing of 6.0 mg/kg/day for 4.5 days in dog(cu dose-52.4) and sacrificed at 75 days PLD(cu dose-27 mg/kg); type: ADME, organism-based, Canis lupus familiaris; details: in vivo, 1800 h
[15] = tested on: Rattus norvegicus; test: Percent reduction was determined by using the ratio of mean of treated animal to that of control animal at a dose of 94 mg/kg; type: functional
[16] = tested on: Canis familiaris; test: MESPM/MEHSPH Distribution in liver was determined after DESPM dosing of 8.0 mg/kg/day for 4.5 days in dog(cu dose-52.4) and sacrificed at 10 days PLD(cu dose-36 mg/kg); type: ADME, organism-based, Canis lupus familiaris; details: in vivo, 240 h
[17] = tested on: Canis familiaris; test: putrescine Distribution in liver was determined after DESPM dosing of 8.0 mg/kg/day for 4.5 days in dog(cu dose-52.4) and sacrificed at 75 days PLD(cu dose-36 mg/kg); type: ADME, organism-based, Canis lupus familiaris; details: in vivo, 1800 h
[18] = tested on: Canis familiaris; test: Spermidine Distribution in liver was determined after DESPM dosing of 1.87 mg/kg/day for 28 days in dog(cu dose-52.4) and sacrificed at 10 days PLD(cu dose-52.4 mg/kg); type: ADME, organism-based, Canis lupus familiaris; details: in vivo, 240 h
[19] = tested on: Rattus norvegicus; test: Stool output of rat over the 6-h collection period when a dose of 4.7 mg/kg (11.6 administered; type: functional
[20] = tested on: Canis familiaris; test: Spermine Distribution in liver was determined after DESPM dosing of 6.0 mg/kg/day for 4.5 days in dog(cu dose-52.4) and sacrificed at 10 days PLD(cu dose-27 mg/kg); type: ADME, organism-based, Canis lupus familiaris; details: in vivo, 240 h
[21] = tested on: Canis familiaris; test: MESPM/MEHSPH Distribution in kidney was determined after DESPM dosing of 8.0 mg/kg/day for 4.5 days in dog(cu dose-52.4) and sacrificed at 75 days PLD(cu dose-36 mg/kg); type: ADME, organism-based, Canis lupus familiaris; details: in vivo, 1800 h
[22] = tested on: Rattus norvegicus; test: Percent reduction was determined by using the ratio of mean of treated animal to that of control animal at a dose of 47 mg/kg; type: functional
[23] = tested on: Canis familiaris; test: putrescine Distribution in kidney was determined after DESPM dosing of 8.0 mg/kg/day for 4.5 days in dog and sacrificed at 10 days PLD(cu dose-36 mg/kg); type: ADME, organism-based, Canis lupus familiaris; details: in vivo, 240 h
[24] = tested on: Rattus norvegicus; test: Percent reduction was determined by using the ratio of mean of treated animal to that of control animal at a dose of 9.4 mg/kg; type: functional
[25] = tested on: Canis familiaris; test: MESPM/MEHSPH Distribution in kidney was determined after DESPM dosing of 8.0 mg/kg/day for 4.5 days in dog(cu dose-52.4) and sacrificed at 10 days PLD(cu dose-36 mg/kg); type: ADME, organism-based, Canis lupus familiaris; details: in vivo, 240 h
[26] = tested on: Canis familiaris; test: Spermidine Distribution in kidney was determined after DESPM dosing of 8.0 mg/kg/day for 4.5 days in dog(cu dose-52.4) and sacrificed at 10 days PLD(cu dose-36 mg/kg); type: ADME, organism-based, Canis lupus familiaris; details: in vivo, 240 h
[27] = tested on: Rattus norvegicus; test: Percent reduction was determined by using the ratio of mean of treated animal to that of control animal at a dose of 4.7 mg/kg; type: functional
[28] = tested on: Canis familiaris; test: MESPM/MEHSPH Distribution in kidney was determined after DESPM dosing of 6.0 mg/kg/day for 4.5 days in dog(cu dose-52.4) and sacrificed at 75 days PLD(cu dose-27 mg/kg); type: ADME, organism-based, Canis lupus familiaris; details: in vivo, 1800 h
[29] = tested on: Canis familiaris; test: Spermine Distribution in kidney was determined after DESPM dosing of 6.0 mg/kg/day for 4.5 days in dog(cu dose-52.4) and sacrificed at 75 days PLD(cu dose-27 mg/kg); type: ADME, organism-based, Canis lupus familiaris; details: in vivo, 1800 h
[30] = tested on: Canis familiaris; test: MESPM/MEHSPH Distribution in kidney was determined after DESPM dosing of 1.87 mg/kg/day for 28 days in dog(cu dose-52.4) and sacrificed at 10 days PLD(cu dose-52.4 mg/kg); type: ADME, organism-based, Canis lupus familiaris; details: in vivo, 240 h
[31] = tested on: Canis familiaris; test: Spermine Distribution in liver was determined after DESPM dosing of 1.87 mg/kg/day for 28 days in dog(cu dose-52.4) and sacrificed at 75 days PLD(cu dose-52.4 mg/kg); type: ADME, organism-based, Canis lupus familiaris; details: in vivo, 1800 h
[32] = tested on: Canis familiaris; test: Spermine Distribution in liver was determined after DESPM dosing of 8.0 mg/kg/day for 4.5 days in dog(cu dose-52.4) and sacrificed at 10 days PLD(cu dose-36 mg/kg); type: ADME, organism-based, Canis lupus familiaris; details: in vivo, 240 h

CCNCCCCNCCCCNCCCCNCC [DIETHYLHOMOSPERMINE]
Wet weight of tissue [1]: 68 nM/g
Wet weight of tissue [2]: 0 nM/g
Wet weight of tissue [3]: 668 nM/g
Wet weight of tissue [4]: 275 nM/g
Wet weight of tissue [5]: 30 nM/g
Wet weight of tissue [6]: 0 nM/g
Wet weight of tissue [7]: 751 nM/g
Wet weight of tissue [8]: 36 nM/g
Wet weight of tissue [9]: 68 nM/g
Wet weight of tissue [10]: 611 nM/g

CCNCCCNCCCCNCCCNCC [BIS(ETHYL)SPERMINE]
Wet weight of tissue [11]: 80 nM/g
Wet weight of tissue [12]: 117 nM/g
Wet weight of tissue [13]: 850 nM/g
Wet weight of tissue [14]: 992 nM/g
Reduction [15]: 100%
Wet weight of tissue [16]: 21 nM/g
Wet weight of tissue [17]: 56 nM/g
Wet weight of tissue [18]: 179 nM/g
Stool output [19]: <3 g (350g of rat weight)-1
Wet weight of tissue [20]: 848 nM/g
Wet weight of tissue [21]: 0 nM/g
Reduction [22]: 75% and 92%
Wet weight of tissue [23]: 20 nM/g
Reduction [24]: 55% and 92%
Wet weight of tissue [25]: 12 nM/g
Wet weight of tissue [26]: 66 nM/g
Reduction [27]: 37% and 60%
Wet weight of tissue [28]: 0 nM/g
Wet weight of tissue [29]: 584 nM/g
Wet weight of tissue [30]: 12 nM/g
Wet weight of tissue [31]: 649 nM/g
Wet weight of tissue [32]: 937 nM/g
